Laboratory results taken from a melting point compilation (Tetko et al.; mined from patent text by program, amines drawn as free bases though some values may be those of a salt).

Point of comparison: `O=C(C=Cc1ccc(O)c(O)c1O)OCCc1ccccc1`, melting point 144 °C. Against it:
- Brc1cccc2nc(N3CCNCC3)ccc12 — lower, 94 to 96 °C
- O=Cc1ccc2sc(=O)[nH]c2c1 — lower, 140 to 142 °C
- CC(=O)c1cnc2c(cnn2Cc2ccco2)c1O — lower, 108 to 110 °C
- O=C(O)c1ccc2c(c1)nc(-c1ccc(Oc3cccc(Br)c3)cc1)n2C1CCCCC1 — higher, 255 to 256 °C
- C[C@@H]1Cc2ccsc2[C@H](C)N1CCNS(=O)(=O)c1ccc(N)cc1 (relative stereo) — lower, 126 to 131 °C
- CCCCCCCCCCCCOC(=O)c1ccc(O)c(N)c1 — lower, 86 to 89 °C
- COc1ccc(C(c2ccc(OC)c(O)c2)n2cncn2)cc1O — higher, 218 to 219 °C
- O=S(=O)(CCO)CCCS(=O)(=O)CCO — higher, 158 to 161 °C
- CN1CCN(c2ccc(C(=O)N[C@H]3CC[C@H](CCN4CCC(c5cccc6c5CCO6)CC4)CC3)cc2)CC1 — higher, 241 °C
- Cc1onc2c(=O)[nH]nc(-c3ccc(O)cc3)c12 — higher, 268 to 276 °C
- COC(=O)c1ccc(-c2nc(-c3ccc(Cl)s3)cs2)cc1 — higher, 171 to 172 °C
- CN1CC(=O)Nc2ccncc2C1=O — higher, 267 to 268 °C
- C[C@@H](n1cnn(-c2ccc(OCC(F)(F)F)cc2)c1=O)[C@@]1(c2ccc(F)cc2F)CO1 — lower, 118 to 119 °C
- CC(C)(C)c1ccc(SCCCCCOc2ccc(C3=C(c4ccccc4)CCCc4cc(O)ccc43)cc2)cc1 — lower, 139 °C
- OCC(CO)Cc1ccccc1 — lower, 64 to 65 °C
- CC(=O)NNc1nc(C(F)(F)F)nc(-c2ccc(F)cc2)c1-c1ccccc1 — higher, 149 to 153 °C
- CCOC(=O)CN(CC(=O)OCC)c1ccc(C=O)c(O)c1 — higher, 190 °C
- O=C1CCCCN1S(=O)(=O)c1ccc(N2CCCCCC2)cc1 — lower, 85 to 88 °C
- OC(CCN1CCCC1)c1ccc(C2CCCCC2)c(Cl)c1 (stereo not given) — lower, 90 °C
- COc1ccc(CCNC(=O)CN(c2ccccc2)c2ccccc2)cc1OC — lower, 88 to 93 °C
- COc1ccc(C2=NN(CCCCOc3ccc(C4=NNC(=O)CC4C)c(F)c3F)C(=O)C2(C)C)c2cc(C(F)(F)F)sc12 (stereo not given) — lower, 137 to 138 °C
- CSCC(=O)N=C(SC)N(C)N=Cc1ccccc1 — lower, 68 to 70 °C
- Cc1cccn2cc(CCl)nc12 — lower, 115 to 117 °C
- CCc1c(Sc2cc(C)cc(C)c2)n(CC2=CC(CO)C(CO)C2)c(=O)[nH]c1=O (stereo not given) — higher, 156 to 157 °C
- COc1cc2c(Nc3ccc4cn[nH]c4c3)c(C#N)cnc2cc1OCCN1CCc2ccccc2C1 — higher, 170 to 173 °C
- COCCOc1c(C)cc(C#CC2(O)CN3CCC2CC3)cc1C (stereo not given) — lower, 120 °C
- CC(CO)Nc1c([N+](=O)[O-])cnc2ccccc12 (stereo not given) — higher, 207 to 211 °C
- CS(=O)(=O)Nc1cc(C(O)CNCCCCCCOCCCCOc2ccc3ccccc3c2)ccc1O (stereo not given) — lower, 99.5 to 100 °C
- CCCCc1c(-c2ccccc2)nc(N)nc1-c1ccccc1 — higher, 154 to 155 °C
- Fc1ccc(C#CC2=CCN(Cc3coc4ccccc34)CC2)cc1 — lower, 79 to 80 °C
- CCOC(=O)C1=C(C)NC(COCCn2ccnc2)=C(C(=O)OCC)C1c1ccccc1Cl (stereo not given) — higher, 163 to 165 °C
- Cc1cc(C)c2sc(-c3ccccn3)nc(=O)c2c1 — higher, 245 to 246 °C
- COCC1CN(C(=O)c2cc(OC)c(OC)c(OC)c2)CCN1C(=O)C1=Cc2cc(OC)c(OC)cc2CCC1 (stereo not given) — lower, 137 °C
- CS(=O)(=O)Nc1ccc(C(=O)Cc2ccccc2)cc1Sc1ccc(F)cc1F — lower, 120 to 122 °C
- CCCC(=O)c1cnc2c(OC)cccc2c1Nc1ccc(O)cc1C — higher, 252 to 253 °C
- COc1ccccc1N1CCN(CCCNC2=CC(=O)N(C)S(=O)(=O)N2C)CC1 — lower, 137 to 139 °C
- ON=C1CCn2c(-c3ccccc3)nc3c(Cl)ccc1c32 — higher, 251 to 252 °C
- CCCCc1nn(-c2cc(NC(=O)CC)ccc2Cl)c(=O)n1Cc1ccc(-c2ccccc2S(=O)(=O)NC(=O)c2occ(Cl)c2Cl)cc1 — higher, 223 to 226 °C
- CC(C)(C)OC(=O)c1ccccc1-c1ccc(CNC(=S)NN)cc1 — not separable, > 45 °C
- O=C1Nc2ccccc2CN(c2ccccc2)N1 — higher, 283 to 286 °C
- COc1ccc(CC(=O)c2ccc(OC)c(F)c2)cc1 — lower, 142 to 143 °C
- CN(CC(=O)c1ccc(N2CCOCC2)cc1)C(=O)OC(C)(C)C — lower, 87 to 89 °C
- CC(C)(C)c1cc(CCC2NC(=O)NC2=O)cc(C(C)(C)C)c1O (stereo not given) — higher, 207 to 208 °C
- CCOC(=O)C(C)(C(C)=O)c1ccc([N+](=O)[O-])c(NC)c1C#N (stereo not given) — lower, 87 to 91 °C
- Cn1c2c(cnc3c([N+](=O)[O-])cccc32)c(=O)n1C(=O)OC(C)(C)C — higher, > 250 °C
- CCc1cc(CO)c(OC)nc1C — lower, 53 to 55 °C
- COc1ccc(/C=C/c2ccncc2)c2c1OC(C)(C)C2 — lower, 110 to 113 °C
- COc1ccc(CCN(C)CCOc2ccc(NC(=O)c3cccc4c(=O)c5cccc(OC)c5[nH]c34)cc2)cc1OC — higher, 190 °C
- O=C1CC2CCSc3sccc3C2=NN1 (stereo not given) — higher, 215 to 217 °C
- CCCN(CCCCc1c[nH]c2ccc(F)cc12)C1COc2c(C(N)=O)ccc(F)c2C1 (stereo not given) — lower, 116 °C
- O=C(Cn1cc[nH]c(=O)c1=O)OC(c1ccccc1)c1ccccc1 — lower, 97 to 98 °C
- CCc1nc2nccc(-c3cccnc3)n2n1 — higher, 147 to 149 °C
- CC(C)C(=O)N[C@H]1CC[C@H](CCN2CCN(c3nccc4c3OCC4)CC2)CC1 — higher, 204 °C
- Cc1nn(Cc2ccccc2)c(C)c1CC(=O)O — lower, 119 to 121 °C
- CONc1nc(-c2ccccc2)c2cc(Cl)ccc2n1 — higher, 174 °C
- Clc1ccc(-c2cn3c(n2)CCCC3)c(Cl)c1 — lower, 134 to 136 °C
- NC(=O)CN(c1ccc(Cl)cc1C(O)c1ccccc1Cl)S(=O)(=O)c1ccc(Cl)c(Cl)c1 (stereo not given) — lower, 135 °C
- CC(C)(O)CCCCCc1cccc(C=Cc2ccc(CO)c(CO)c2)c1 — lower, 93 to 95 °C
- O=C(CO)c1ccc(Oc2ccccc2)cc1 — lower, 67 to 69 °C
- CO/N=C(\C(=O)OC)c1nsc(NC(=O)OC)n1 — higher, 158 to 161 °C
- CC(C)Nc1c(-c2c(F)cc(F)cc2F)c(Cl)nc2ncccc12 — higher, 193 °C
- COc1ccc(CNC(=O)c2cnc(SC)nc2NC(C)C)cc1 — higher, 176 to 177 °C
- O=C(OCc1ccccc1)c1ncoc1CCNC(=O)[C@H](Cc1cccs1)N[C@@H](CCc1ccccc1)C(=O)OCc1ccccc1 — lower, 81 to 83 °C
- CCCC[C@H](NC(=O)[C@H](CC(C)C)NC(=O)c1ccc(OC)cc1)C(=O)CSCc1ccco1 — lower, 124 °C
- COc1cc(C(Cn2ccnc2)Sc2ccc(C(=O)O)cc2)cc(OC)c1OC (stereo not given) — lower, 94 to 97 °C
- COc1ccc(C(=O)C=Cc2ccc(C(C)(C)C)cc2)cc1 — lower, 114 to 116 °C
- CCOC(=O)C(=CN(CC)c1cccs1)C(=O)OCC — lower, 41 to 42 °C
- CCN(CC)C(=O)CCc1nc(-c2ccccc2)nc2ccc(OC)cc12 — the same, 144 °C
- CCCOc1cc(CO)n(Cc2ccc3ccccc3n2)n1 — lower, 90 to 91 °C
- O=C1N[C@H](Cc2ccc(C(F)(F)F)cc2)[C@H](c2cccc3ccccc23)O1 (racemic) — higher, 202 to 203 °C
- Cc1cc(-c2c3ccccc3c(Br)c3sc(C)c(C)c23)cc(C)c1OS(=O)(=O)c1ccc(C(=O)O)c(O)c1 — higher, > 225 °C
- CC1(C)C=Cc2c(ccc3c2C(=O)C(Br)=C(O)C3=O)O1 — higher, 202 to 205 °C
- COc1ccc(C2(O)c3cccc(O)c3C(=O)c3c(O)cccc32)cc1 — higher, 172 to 173 °C
- O=C(O)c1cn(-c2ccc(F)cc2)c2c(F)c(N3Cc4cccc(O)c4C3)c(F)cc2c1=O — higher, > 300 °C
- Clc1ccc2c(c1)CCc1cccnc1C2N1CCNCC1 (single isomer, unassigned; (+)) — higher, 153 to 155 °C
- CC(C)(C)c1cccc(S(=O)(=O)n2c(Cc3ccc(CNS(C)(=O)=O)cc3)cc3cc(C(F)(F)F)ccc32)c1 — lower, 96 °C
- CCC(CC)n1nnc2cc(C)c(C)c(N)c21 — lower, 114 to 117 °C
- CCCc1c(C(=O)C2CCCCC2)c2ccc(C(N)=O)cc2n1Cc1cc2c(cc1Cl)OCO2 — higher, 209 to 211 °C
- O=C(O)COc1cc(F)ccc1C(=O)NCc1nc2cc(C(F)(F)F)ccc2s1 — higher, 206 to 208 °C
- O=C(CC1CCOC1=O)c1ccccc1 (stereo not given) — lower, 77 to 79 °C
- C=CCS(=O)c1c(O)cc(C)oc1=O (stereo not given) — lower, 111 to 112 °C
- CC(=O)Nc1ccc(OCc2nc3ccccc3s2)cc1C — higher, 179 to 182 °C
- O=C(O)[C@H]1C[C@H](NC(=O)N(c2ccccc2)c2ccccc2)c2c(Cl)cc(Cl)cc2N1 (relative stereo) — higher, 214 to 216 °C
- O=C1CCN(C(=S)Nc2ccc(Cl)cc2)N1c1ccc(Cl)cc1 — lower, 121 to 124 °C
- O=[N+]([O-])c1ccc(Oc2ccccc2Oc2ccc(Cl)cn2)nc1 — lower, 82 to 84 °C
- CC(C)(CNc1ccnc2cc(Cl)ccc12)NCc1cc(C(F)(F)F)cc(C(F)(F)F)c1 — lower, 140 to 141 °C
- CCCCCS(=O)(=O)NC(=O)/C(C)=C/c1ccc(OCCOC)cc1Oc1ncc(C(F)(F)F)cc1Cl — lower, 108 to 111 °C
- CC(C)S(=O)(=O)C(C#N)=CC=CN(C)C — lower, 102 to 104 °C
- Cc1cc(CC(=O)O)n(C)c1C(=O)c1ccc2n1CCC2 — lower, 132 to 134 °C
- CC(C)(C)OC(=O)N1CCN(C(=O)c2cccs2)CC1 — lower, 76 °C
- COc1ccc(-c2nc(-c3ccccc3)ccc2C(=O)O)cc1OC — higher, 178 °C
- Cc1c(C(=O)O)sc2c(Br)csc12 — higher, 280 to 282 °C
- CCSc1nsc(NC(=O)N(C)C)c1C(N)=O — higher, 147 °C
- CC(C)n1nc(-c2c(NCCN(C)C)nc(N)nc2-c2ccccc2)ccc1=O — higher, 164 to 166 °C
- C=C1CCN(c2ccc(Cl)cc2)C1=O — lower, 119 to 120 °C
- CCCn1nc2c(N)nc3ccccc3c2c1CC(C)(C)N — higher, 193 to 195 °C
- Cc1cnc(CCNC(=O)c2ccccc2NC(=O)c2cccc(C(F)(F)F)c2)[nH]1 — higher, 168 to 172 °C
- O=S(c1ccc(/C=C/c2nc(CNc3ccc(CCCCn4ccnn4)cc3)co2)cc1)C(F)(F)F (stereo not given) — lower, 121 to 124 °C
- NC(=O)c1ccc(OCCNCC(O)c2ccccc2)cc1O (stereo not given) — lower, 141 to 142 °C
